US9192161B2, “Fungicidal combinations comprising a dithiino-tetracarboxamide fungicide” (BAYER INTELLECTUAL PROPERTY GMBH, priority 2011, dated 2015)

System: Venturia inaequalis
Assay: Venturia test (apples)/preventive
Type: in vivo, Venturia inaequalis on apples
Conditions: preventive spray on young apple plants, evaluated 10 days after inoculation
Description: Venturia Test (Apples)/Preventive
• Solvent: 24.5 parts by weight of acetone • 24.5 parts by weight of dimethylacetamide • Emulsifier: 1 part by weight of alkylaryl polyglycol ether
To produce a suitable preparation of active compound, 1 part by weight of active compound is mixed with the stated amounts of solvent and emulsifier, and the concentrate is diluted with water to the desired concentration. To test for preventive activity, young plants are sprayed with the preparation of active compound at the stated rate of application. After the spray coating has dried on, the plants are inoculated with an aqueous conidia suspension of the causal agent of apple scab (Venturia inaequalis) and then remain for 1 day in an incubation cabinet at approximately 20° C. and a relative atmospheric humidity of 100%. The plants are then placed in a greenhouse at approximately 21° C. and a relative atmospheric humidity of approximately 90%. The test is evaluated 10 days after the inoculation. 0% means an efficacy which corresponds to that of the untreated control, while an efficacy of 100% means that no disease is observed.

Structure (SMILES)	Efficacy in % found (0.4 ppm a.i.) [%]	Efficacy in % found (20 ppm a.i.) [%]	Efficacy in % found (40 ppm a.i.) [%]
COC(c1ccc(Cl)cc1Cl)C(C)NC(=O)c1cn(C)nc1C(F)F (stereo not drawn) [(10), 3-(difluoromethyl)-1-methyl-1H-pyrazole-4-carboxylic acid [2-(2,4-dichlorophenyl)-2-methoxy-1-methyl-ethyl]-amide]	18		
Cn1c(=O)c2sc3c(=O)n(C)c(=O)c3sc2c1=O [(I-1), 2,6-dimethyl-1H,5H-[1,4]dithiino[2,3-c:5,6-c′]dipyrrole-1,3,5,7(2H,6H)-tetrone]		46	65
